pIC50: −log10 of the molar value.

For the assay, the system named is TBK1 + IKKε. Description: TBK1 + IKKε cell assay: dose response inhibition of phospho-IRF3 @ Ser 386 in MDA-MB-468 cells after poly(I:C) stimulation. To be noted: Homo sapiens, MDA-MB-468, MDA-MB-468 cells, nuclear phospho-IRF3 Ser386, read-out: TBK1 + IKKε cell assay IC50. It counts as cell-based. The source says:
Dose response inhibition of phospho-IRF3 @ Ser 386 cell/MDAMB468/INH/PHOS/IMAG/pIRF3
Although TBK1 and IKKε are mainly known as key substances in the innate immune response, recent findings have indicated a role for TBK1 and IKKε in Ras-induced oncogenic transformation. TBK1 was identified as RaIB effector in the Ras-like (RaI)-guanine nucleotide exchange factor (GEF) pathway that is required for Ras-induced transformation. TBK1 directly activates IRF3 which, on phosphorylation, homodimerises and translocates to the nucleus, where it activates processes associated with inflammation, immune regulation, cell survival and proliferation.
This assay has been developed in order to assess the efficacy/potency of TBK1/IKKε inhibitor compounds based on the immunocytochemical detection of nucleus-localised phospho-IRF3, a target directly downstream of TBK1. Treatment with polyinosine-polycytidylic acid (poly(I:C), a synthetic analogue of double-stranded RNA (dsRNA), a molecular pattern associated with viral infection and recognised by Toll-like receptor 3 (TLR3) is used to induce TBK1/IKKε activity and IRF3 phosphorylation at Ser386.
Day 1: MDA-MB-468 cells are detached using HyQ-Tase, counted and sown into a 384-well plate with TC surface and clear bottom in a density of 10,000 cells per well in a total volume of 35 μl of complete medium. Alternatively, the cells are sown directly from frozen glass vials.
Day 2: The cells are pre-treated with inhibitor compounds for 1 h prior to poly(I:C) stimulation. After incubation for 2 h with poly(I:C), the cells are fixed in (para)formaldehyde (PFA) and permeabilised using methanol (MeOH). The cells are then blocked and incubated with an anti-pIRF3 antibody at 4° C. overnight.
Day 3: The primary antibody is washed off, an AlexaFluor488-conjugated secondary antibody is added, the cells are contrast-stained with propidium iodide, followed by image acquisition on an IMX ultra-high content reader.
Plating medium=culture medium: • RPMI 1640, Invitrogen #31870 • 10% of FCS, Invitrogen #10270-106 • 2 mM Glutamax, Invitrogen #35050-038 • 1 mM sodium pyruvate, Invitrogen #11360 • 1% of Pen/Strep • 37° C., 5% of CO2
Plates: 384-well bottom cell culture plates with black/clear bottom, Falcon #35 3962 or Greiner #781090
Subcultivation: HyQ-Tase, Thermo Scientific (HyClone) # SV30030.01
Poly(I:C) (LMW), Invitrogen # tlrl-picw (prepare 20 mg/ml stock solution in sterile PBS, denature 30 min 55° C. in a water bath, slowly cool to RT, store at −20° C. in aliquots)
a 10-point dose-response curve with MSC2119074A-4=BX-795 is included in each experiment
Formaldehyde (methanol-free, 16%, ultrapure EM grade), Polysciences #18814 (storage RT), final conc.: 4%
Goat serum, PAA # B15-035 (storage 4° C., long term −20° C.), final conc.: 10%
BSA (IgG- and protease-free, 30%), US-Biological # A1317 (storage 4° C., long term −20° C.), final conc.: 2%
Tween 20 detergent, Calbiochem #655204 (storage RT), (prepare 10% stock solution in water; final conc.: 0.1%)
Anti-pIRF-3 rabbit mAb, Epitomics #2526-B (storage −20° C.), final conc.: 1:2000 in PBS/2% of BSA
Alexa Fluor goat-anti-rabbit-488, Invitrogen # A11034 or # A11008 (storage 4° C., dark), final conc.: 1:2000 in PBS/2% of BSA/0.1% of Tween
Propidium iodide (PI), Fluka #81845, 1 mg/ml in H2O (storage 4° C., dark), final conc.: 0.2 μg/ml
(1) Sow 10,000 cells/well/35μof complete RPMI +10% FCS into 384-well bottom cell culture plates with black / clear bottom,
(2) Incubate for 2 h at room temperature on the bench, followed by further incubation for 22 h at 37° C., 5% of CO2 and 90% RH. […]
The pIC50 is the IC50 on a negative log10 scale, so that one unit is a factor of ten. For `CC1(COc2ccc(-c3c[nH]c4ncc(-c5cnn(C6COC6)c5)cc34)cc2C#N)COC1` [Compound A35, 2-(3-methyloxetan-3-ylmethoxy)-5-[5-(1-oxetan-3-yl-1H-pyrazol-4-yl)-1H-pyrrolo[2,3-b]-pyridin-3-yl]benzonitrile], the pIC50 is 5.52 to 6.52.

In the case of `CC1(COc2ccc(-c3c[nH]c4ncc(-c5cn[nH]c5)cc34)cc2C#N)COC1` [Compound A36, 2-(3-methyloxetan-3-ylmethoxy)-5-[5-(1H-pyrazol-4-yl)-1H-pyrrolo[2,3-b]pyridin-3-yl]benzonitrile], the pIC50 was 4.30 to 5.52.

Regarding `N#Cc1cc(-c2c[nH]c3ncc(-c4cnn(C5COC5)c4)cc23)cnc1OC1CCOCC1` [Compound A37, 5-[5-(1-Oxetan-3-yl-1H-pyrazol-4-yl)-1H-pyrrolo-[2,3-b]pyridin-3-yl]-2-(tetrahydropyran-4-yloxy)-nicotinonitrile], the pIC50 was 4.30 to 5.52.

Turning to `COCCn1cc(-c2cnc3[nH]cc(-c4cnc(OC5CCOCC5)c(C#N)c4)c3c2)cn1` [Compound A38, 5-{5-[1-(2-Methoxyethyl)-1H-pyrazol-4-yl]-1H-pyrrolo-[2,3-b]pyridin-3-yl}-2-(tetrahydropyran-4-yloxy)-nicotinonitrile], the pIC50 is 5.52 to 6.52.
